From patent publication US20090221095A1, “Colorimetric Screening of DNA Binding/Intercalating Agents with Gold Nanoparticle Probes” (NORTHWESTERN UNIVERSITY, priority 2005, published 2009)

Tests used:
Format in all cases: binding
[1] = system: triplex DNA (NP-1/DNA-3/NP-2); assay: Colorimetric triplex binder assay: aggregation of NP-1, NP-2 gold nanoparticles and free DNA-3; details: NP-1 and NP-2 1.5 nM each, DNA-3 150 nM, binder 5 μM, 10 mM PBS pH 7.0, NaCl 0.5 M, room temperature
Text: This method utilizes the aggregation-induced, red-to-blue color change associated with 13 nm gold (Au) nanoparticles. The assay consists of two sets of gold nanoparticles NP-1 and NP-2, and a free strand of DNA, DNA-3. […] DNA-3 is complementary to NP-1 with a two base dangling end to prevent noncross-linked NP-1 aggregation. When NP-1 and DNA-3 are combined, they form nonaggregate linking duplexes on the nanoparticle surface. […] However, introduction of a strong triplex binding agent, benzo[e]pyridoindole (BePl), stabilizes triplex formation through Hoogsteen-type Py-PaPy triplet base hydrogen bonds and induces nanoparticle aggregation resulting in a concomitant red-to-blue color change due to a red-shifting and dampening of the nanoparticle plasmon resonance (Scheme 1).
This assay is prepared by combining NP-1 and NP-2 (1.5 nM each) in a 1:1 molar ratio in 10 mM PBS buffer (pH=7.0, NaCl 0.5 M) with DNA-3 (150 nM) and BePl (5 μM). […] This stabilization results in a dramatic decrease in absorbance at 520 nm accompanied by a red-to-blue color change. Note that in the absence of DNA-3, NP-1 and NP-2 cannot form aggregates even in the presence of a strong triplex binder (FIG. 1B).
To further investigate the importance of the triplex structure and rule out aggregation due to duplex formation between the nanoparticles, the assay as set out in Example I was performed in the presence of seven additional duplex binders 4′,6-diamidino-2-phenylindole (DAPI), ellipticine (EIPT), amsacrine (AMSA), daunorubicin (DNR), anthraquinone-2-carboxylic acid (AQ2A), ethidium bromide (EB), and 9-aminoaclidine (9-AA)(5 μM).
In general, assay methods that can detect drug candidates by the naked eye, without resorting to any instrumentation, are convenient, and for this reason, an assay that could screen for triplex binders would be of great interest. At present, there are no assays that provide this capability. […] The mixtures of NP-1, NP-2 and DNA-3 containing the control and duplex intercalators remain red in color.

[2] = system: triplex DNA (DNA-1, DNA-2, DNA-3); assay: UV melting (260 nm) of unmodified triplex DNA-1, DNA-2, DNA-3 (no nanoparticles); details: duplex melting transition; solution-phase unmodified DNA, 1 μM each strand, 6 μM binder, 0.5 M NaCl 10 mM PBS
Protocol: To compare the results from the previous examples with more traditional screening techniques, all eight intercalators were screened, plus a control, by monitoring UV absorbance melting curves (260 nm) of unmodified DNA-1, DNA-2, and DNA-3 (1 μM each), with each intercalator (10 μM), (DNA-1; 3′ TTCTTCTTTTTT CT-5′. DNA-2: 5′-TTCTTCTTTTTTCT-3′, DNA-3: 5′-AAGAAGAAAAAA-3′). (FIG. 2B). The melting experiment performed in the presence of BePl has two melting transitions. The first Tm at 34.8° C. is associated with the denaturation of the triplex structure and the second Tm at 61.4° C. is representative of the corresponding duplex.
(§1) To determine the Tm of the duplex DNA in the presence of DNA binders, 2 μM duplex DNA and 5 μM DNA binder were combined in 0.3 M NaCl 10 mM PBS. To determine the Tm of the triplex DNA in the presence of DNA binders, 1 μM of each strand and 6 μM of each DNA binder were combined in 0.5 M NaCl 10 mM PBS. UV-vis melting curves were measured on a CARRY 500 spectrophotometer equipped with a circulating bath. The melting process was monitored by measuring the change in extinction at 260 nm. The solutions were stirred continuously with a magnetic stir bar as the solution temperature was increased at a rate of 0.5° C./min. The first derivative generated from the melting curves was used to determine the Tm.
A melting transition associated with the triple helix was found only for experiments performed in the presence of BePI (34.8° C.) and CORA (17.1° C.) where BePI is determined to be the stronger binder. This is in agreement with the results determined by the chip-based scanometric method described above.

[3] = system: duplex DNA between NP-1 and NP-2; assay: Melting temperature of NP-1/NP-2 gold nanoparticle duplex nanoassemblies (520 nm); details: NP-1 and NP-2 1.5 nM each, intercalator 5 μM, 10 mM PBS pH 7.0, NaCl 0.1 M, control 26.4
Text: This method also utilizes the aggregation-induced, red-to-blue color change associated with 13 nm Au nanoparticles. Gold nanoparticles are functionalized with one of two complementary thiol-modified oligonucleotide strands and are denoted NP-1 and NP-2. When NP-1 and NP-2 are combined, they form aggregates through a reversible DNA hybridization process. This process results in a red-to-blue color change due to a red-shifting and dampening of the nanoparticle plasmon resonance. Increasing the temperature above the melting temperature of the DNA reverses the process, and the particles dissociate with a concomitant blue-to-red color change. […] This increased stability is reflected by an increase in melting temperature. Note that the shape and breadth of the transition is almost independent of the intercalator (FIG. 4). Therefore, by monitoring the blue-to-red color transition of hybridized oligonucleotide-modified Au nanoparticles in the presence of different compounds, the relative strength of intercalator binding can be determined with the naked-eye.
(§2) The assay is initiated by mixing NP-1 and NP-2 (1.5 nM each) in a 1:1 molar ratio in 10 mM PBS buffer (pH=7.0, NaCl 0.1 M. The melting temperatures of the nanoassemblies (NP-1 and NP-2) were then determined in the presence of 4′,6-diamidino-2-phenylindole (DAPI), ellipticine (EIPT), Amsacrine (AMSA), daunorubicin (DNR), anthraquinone-2-carboxylic acid (AQ2A), ethidium bromide (EB), and 9-aminoacridine (9-AA) (5 μM), respectively. UV melting profiles were measured by monitoring the absorbance at 520 nm at a scan rate of 0.5° C. min^−1. Melting temperatures were determined by taking the maxima of the first derivative of the melting curves. Control experiments were run by determining the melting temperatures of unmodified duplex DNA (DNA-1: 5′-TAACAATAA-3′, DNA-2: 5′-TTATTGTTA-3′) in the presence of all seven intercalators shown in Table 1.

[4] = system: unmodified duplex DNA (DNA-1: 5′-TAACAATAA-3′, DNA-2: 5′-TTATTGTTA-3′); assay: Melting temperature of solution-phase unmodified duplex DNA (no nanoparticles); details: for Tm, melting temperature of solution-phase unmodified DNA: 2 uM duplex DNA, 5 uM DNA binder, control (no DNA binder) 19.1; for relative trend in binding strength: from control experiments, Tm of solution-phase unmodified DNA (Table 2)
Protocol: as §2, §1

| Structure (SMILES) | nanoparticle aggregation (decrease in absorbance at 520 nm, red-to-blue color change) [1] | Tm 2-1 [2] | Tm^a, melting temperature of nanoassemblies [3] | Tm, melting temperature of solution-phase unmodified DNA [4] | relative trend in binding strength [4] |
| --- | --- | --- | --- | --- | --- |
| Nc1c2ccccc2nc2ccccc12 [9-AA, 9-aminoacridine] | no nanoparticle aggregation | 59.1 °C | 30.9 °C | 19.3 °C |  |
| O=C(O)c1ccc2c(c1)C(=O)c1ccccc1C2=O [AQ2A, anthraquinone-2-carboxylic acid] | no nanoparticle aggregation | 59.1 °C | 28.5 °C | 19.4 °C |  |
| N=C(N)c1ccc(-c2cc3ccc(C(=N)N)cc3[nH]2)cc1 [DAPI, 4′,6-diamidino-2-phenylindole] | no nanoparticle aggregation | 66.3 °C | 50.4 °C | 27.8 °C | DAPI>DNR>EB>other intercalators |
| COc1cccc2c1C(=O)c1c(O)c3c(c(O)c1C2=O)C[C@@](O)(C(C)=O)C[C@@H]3O[C@H]1C[C@H](N)[C@H](O)[C@H](C)O1 [DNR, daunorubicin] | no nanoparticle aggregation | 61.7 °C | 38.4 °C | 25.4 °C | DAPI>DNR>EB>other intercalators |
| Cc1c2ccncc2c(C)c2c1[nH]c1ccccc12 [EIPT, ellipticine] | no nanoparticle aggregation | 59.3 °C | 29.2 °C | 20.5 °C |  |
